From article PMC7504728, “Bioactivities of Lyngbyabellins from Cyanobacteria of Moorea and Okeania Genera” (Molecules, 2020)
Where two headings read alike, the source gives them in different places.

Key:
Plasmodium [1] = conditions: antimalarial, cited from earlier work
From the text: Table 1 Structural diversity and antimalarial potential of secondary metabolites derived from cyanobacteria. | column: IC50 (µM)

Plasmodium [2] = conditions: antimalarial; pLDH; cited from earlier work
From the text: (§1) Table 1 Structural diversity and antimalarial potential of secondary metabolites derived from cyanobacteria. | column: IC50 (µM) || As part of an effort to identify antiplasmodial and antifouling metabolites, two cyanobacteria from two geographically distinct environments were studied: a Malaysian Moorea bouillonii and a Red Sea Okeania sp. Moorea and Okeania genera were delineated from the Lyngbya genus. As phylogenetically close genera, they produce similar compounds. In this study, the lyngbyabellin family depsipeptides were isolated from Moorea bouillonii and Okeania sp. These kinds of compounds were initially found in the sea hare Dolabella auricularia after being identified from cyanobacterial origins as p ...

KB, LoVo = conditions: range over KB; cited from earlier work
From the text: (§2) Table 2 Diversity of biological activities reported for Lyngbyabellins in the literature from 2000 to 2020. | column: IC50 (µM)

MCF7 breast cancer cells [3] = experiment: Cytotoxicity MTT assay on MCF7 breast cancer cells; assay type: cell-based, human; conditions: MTT after 72 h incubation; for IC50: 37 °C, read-out: IC50, cytotoxicity with respect to MCF7 breast cancer cells
Method: The cytotoxicity of the compounds was determined according to a procedure reported previously. MCF7 breast cancer cells were maintained in RPMI-1640 medium with 10% fetal bovine serum (FBS). The cells were plated into 96-well plates with a density of 1.0 × 10^4 cells per well. After 24 h incubation, the cells were exposed to different concentrations of compounds, with cisplatin as a positive control and with 1% filtered ethanol as a negative control. The MTT assay was conducted after 72 h of incubation at 37 °C and 5% CO2.

[4] = system: Plasmodium falciparum strain FCR-3; experiment: Antiplasmodial assay, Giemsa staining; assay type: cell-based
Method: Compound 1 isolated from Okeania sp., and compounds 6 and 7 from M. bouillonii were tested against the malaria parasite (P. falciparum). […] The assay was repeated three times in the concentration range of 0.05–10 (μg/mL). It is noteworthy that the mechanisms of antiplasmodial compounds isolated from M. bouillonii impeding the growth of Plasmodium are still unclear. […] However, as 1 and 7 were reported as cytotoxic towards cancer cells, we hypothesized that they act in the same way on erythrocytes, which distorts the results of the antimalarial assay.
The Giemsa staining method previously described by Aydin-Schmidt was used to evaluate the ability of compounds to inhibit the malaria parasite. A synchronized culture of Plasmodium falciparum strain FCR-3, the late-ring stage, was used (parasitemia 2%) for this assay. A series of compound concentrations were applied in 96-well microplates and incubated for 72 h at 37 °C in a reduced oxygen atmosphere. Compounds 1, 6, and 7 were dissolved in DMSO and tested in triplicate at three separate times. Chloroquine was used as a positive control and cultured medium with 1% DMSO (final concentration of solvent in all compound tested) as a negative control. Each assay was conducted in triplicate (n = 3). After 72 h, the parasitic level was evaluated by Giemsa and light microscopy. The inhibition level of compounds against Plasmodium was calculated using the formula previously reported.

HT29, HeLA = conditions: range over HT29, HeLA; cited from earlier work
From the text: as §2

H460 = conditions: cited from earlier work
From the text: as §2

[5] = system: various cancer cell lines; conditions: cited from earlier work
From the text: as §1, with “As” for “Table 1 Structural diversity and antimalarial potential of secondary metabolites derived from cyanobacteria. | column: IC50 (µM) || As”

[6] = system: Amphibalanus amphitrite barnacle larvae; experiment: Antifouling (settlement inhibition) assay on A. amphitrite cyprids; assay type: in vivo
Method: As for all the compounds, the activity remained after 120 h of exposure.
The antifouling activity of the compounds was determined according to a procedure reported previously. Briefly, the newly developed cyprids of A. amphitrite were tested against several different concentrations of the isolated compounds (1–5) (0.03–10 μg/mL) in triplicate (n = 3). The assays were conducted using 24-well polystyrene culture plates, with each well containing 2 mL seawater and six cyprids. […] The total number of dead cyprids was counted after 120 h of exposure. Antifouling activity was expressed as an EC50 according to Probit analysis. CuSO4 was used as a positive control and 80% filtered (0.20 µm of pore filter) natural seawater (diluted with deionized water) as a negative control.

H460, Neuro-2a, MCF7 = conditions: range over H460, Neuro-2a, cited from earlier work
From the text: as §2

H460, Neuro-2a = conditions: range over H460, Neuro-2a; cited from earlier work
From the text: as §2

[7] = system: P. falciparum (liver-stage); conditions: cited from earlier work
From the text: as §2

HT29, HeLA, KB, LoVo = conditions: range over HT29, HeLA; cited from earlier work
From the text: as §2

[8] = system: Amphibalanus amphitrite barnacle larvae; parameters: method as in PMID 29019684; conditions: A.amphitrite barnacle cypris; cited from earlier work
MCF7 breast cancer cells [9] = conditions: cited from earlier work
From the text: These differences in cytotoxicity were attributed to the dissimilarities in their structures.

HT29, HeLA, CA46, PtK2 = conditions: range over HT29, HeLA; cited from earlier work
From the text: as §2

KB = conditions: cited from earlier work
From the text: as §2

HT29, HeLA, MCF7 = conditions: range over HT29, HeLA, MCF7 value from current study; cited from earlier work
From the text: as §2

H460, HCT116 = conditions: range over H460, HCT116; cited from earlier work
From the text: as §2

[10] = strain FCR-3, late-ring (intraerythrocytic) stage, parasitemia 2%, 72 h, 37 °C, 0.05–10 μg/mL, repeated three times, triplicate, read-out: IC50 against malaria parasite (P. falciparum)
[11] = A.amphitrite barnacle cypris, current study
[12] = previous study, read-out: IC50, cytotoxicity with respect to MCF7 breast cancer cells

In the case of `C/C1=C/C(=O)O[C@H](CCC[C@@H](O)CCC[C@@H](O)CCC[C@@H](O)CCC[C@H](O)C(C)(C)C)C[C@@H](O)C[C@H](O)CCC[C@@H](O)CCC[C@@H](O)C[C@@H](O)CCCCC1` [Bastimolide B], the IC50 (Plasmodium [1]; Pico-Green) is given as 5.7 µM.
In the case of Hoshinoamide A, the IC50 (Plasmodium [2]) is given as 5.2 µM.
In the case of Lyngbyabellin C, the IC50 (KB, LoVo) is listed as 2.1 to 5.3 µM.
In the case of homohydroxydolabellin [Compound 6], the “Cytotoxicity towards MCF7 cells” value (MCF7 breast cancer cells [3]) is reported as over 50 µg/mL, the “Cytotoxicity with respect to MCF7 breast cancer cells (in words)” value (MCF7 breast cancer cells [3]) is reported as “non-cytotoxicity” and the IC50 [4, 10] is reported as 6.4 µM.
For Mabunamide, the IC50 (Plasmodium [2]) is listed as 1.4 µM.
In the case of Lyngbyabellin J, the IC50 (HT29, HeLA) is given as 0.041 to 0.054 µM.
In the case of Lyngbyabellin L, the “IC50 (µM)” value (H460) is given as “Inactive”.
In the case of Dolastatin 10, the IC50 (Plasmodium [2]) is given as 0.0001 µM and the “Selectivity index against various cancer cell lines” value [5] is given as at most 1.
In the case of `C/C1=C/C(=O)O[C@H](C(C)(C)C)CCC[C@H](O)CCC[C@H](O)CCC[C@H](O)CCC[C@@H](O)C[C@@H](O)C[C@H](O)CCC[C@@H](O)CCC[C@@H](O)C[C@@H](O)CCCCC1` [Bastimolide A], the IC50 (Plasmodium [1]; Sybr Green) is given as 0.27 µM.
In the case of Dolastatin 15, the IC50 (Plasmodium [2]) is given as 0.0024 µM.
For lyngbyabellin H [Compound 4], the “Antifouling activity at 10 µg/mL” value ([6]; 10 µg/mL, 48 h exposure, triplicate (n = 3)) was “inactive”, the “EC50(µg/mL)” value [6, 11] was “Inactive” and the IC50 (MCF7 breast cancer cells [3]) was 0.07 µM. The IC50 (H460, Neuro-2a, MCF7; MCF7 value from current study) was 0.07 to 1.4 µM.
In the case of Ulongamide A, the IC50 (Plasmodium [1]; Sybr Green) is given as 0.99 µM.
For Lyngbyabellin K, the “IC50 (µM)” value (H460) is listed as “Inactive”.
In the case of Venturamide A, the IC50 (Plasmodium [1]; Pico-Green) is given as 8.2 µM.
For Lyngbyabellin M, the “IC50 (µM)” value (H460) is given as “Inactive”.
In the case of Lyngbyabellin F, the IC50 (H460, Neuro-2a) is given as 1 to 1.8 µM.
For Ikoamide, the IC50 (Plasmodium [2]) is listed as 0.14 µM.
In the case of lyngbyabellin A [Compound 7], the IC50 ([4]; P.falciparum (intraerythrocytic stage), current study, read-out: IC50) is given as 0.3 µM, the IC50 (Plasmodium [1]; Sybr Green) is given as 0.0015 µM and the IC50 [7] is given as 0.0015 µM. The IC50 (HT29, HeLA, KB, LoVo) was 0.021 to 0.345 µM.
For lyngbyabellin G [Compound 1], the “EC50” value [8] is given as 4.41 µg/mL, the IC50 [4, 10] is given as 1.1 µM and the IC50 (MCF7 breast cancer cells [9]; [12]) is given as 120 µM. For the same compound, the IC50 (H460, Neuro-2a, MCF7) was 2.2 to 120 µM.
In the case of Lyngbyabellin E, the IC50 (H460, Neuro-2a) is given as 0.4 to 1.2 µM.
For Gallinamide A, the IC50 (Plasmodium [1]; Pico-Green) is listed as 8.4 µM.
In the case of Lyngbyabellin B, the IC50 (HT29, HeLA, CA46, PtK2) is listed as 0.1 to 1.1 µM.
In the case of Dragomabin, the IC50 (Plasmodium [1]; Pico-Green) is listed as 6 µM.
For Lyngbyabellin I, the IC50 (H460, Neuro-2a) is listed as 0.7 to 1 µM.
In the case of Carmabin A, the IC50 (Plasmodium [1]; Pico-Green) is given as 4.3 µM.
In the case of Lyngbyabellin D, the IC50 (KB) is given as 0.1 µM.
For lyngbyabellin O [Compound 2], the “EC50” value [8] is listed as 0.24 µg/mL, the “IC50 (µM)” value (MCF7 breast cancer cells [9]; MCF7) is listed as “Inactive” and the IC50 (MCF7 breast cancer cells [9]; [12]) is listed as over 160 µM.
For 27-deoxylyngbyabellin A [Compound 5], the EC50 [6, 11] was 0.09 µg/mL, the “Toxicity to A.amphitrite barnacle cypris (remark in EC50 cell)” value ([6]; current study) was 0.09 (but toxic) and the Toxicity to larvae ([6]; exposed to 1 µg/mL, dead cyprids counted after 120 h of exposure) was “almost all the larvae were dead”. The IC50 (MCF7 breast cancer cells [3]) was 0.31 µM and the IC50 (HT29, HeLA, MCF7) was 0.0073 to 0.31 µM.
For lyngbyabellin P [Compound 3], the “EC50” value [8] is listed as 0.62 µg/mL and the IC50 (MCF7 breast cancer cells [9]; MCF7, read-out: IC50) is listed as 9 µM.
For Companeramide A, the IC50 (Plasmodium [1]; Sybr Green) is given as 5.7 µM.
In the case of Kakeromamide B, the IC50 (Plasmodium [1]; Sybr Green) is given as 8.9 µM.
In the case of Lyngbyabellin N, the IC50 (H460, HCT116) is given as 0.0048 to 1.8 µM.
